Source: patent US6350758B1, “Tropane derivatives and method for their synthesis” (Georgetown University, priority 1996, dated 2002)

Molecular target: T1, dopamine transporter (Rattus norvegicus, UniProt P23977)
T1 construct: Synaptosomes were prepared by homogenizing fresh tissue in 20 volumes of ice-cold 0.32 M sucrose; from tissue; host or cells: striatal (caudate nucleus) synaptosomes from fresh brain tissue
Assay: Test B: uptake of [3H]dopamine and [3H]serotonin into striatal synaptosomes
Type: biochemical
Details: dopamine vs serotonin transporter
Method: Uptake of [^3H]dopamine and [^3H]serotonin was carried out using synaptosomes from the same brain regions as described above for binding assays. A Krebs phosphate buffer, pH 7.4, containing 1 μM pargyline, dextrose (1.9 mg/ml), and ascorbic acid (0.2 mg/ml) was used. Synaptosomes were prepared by homogenizing fresh tissue in 20 volumes of ice-cold 0.32 M sucrose using a glass-teflon homogenizer. Nuclei and large tissue fragments were removed by centrifugation at 800×g for 10 minutes. The supernatant was centrifuged at 20,000×g for 15 minutes to collect synaptosomes in a pellet. The pellet was resuspended in 0.32 M sucrose at a concentration of 15, 100 or 10 mg/ml original wet weight, and diluted 10 fold in the assay tubes. The final assay volume was 1.0 ml and the duration of incubation at 30° C. was 3 minutes so that uptake was inear with time in contrast to binding assays where binding had reached equilibrium.
Ki values were determined using serial dilutions of the analogues. A thirty minute preincubation of the analogues with the tissue was utilized before uptake was initiated by adding tritiated substrate. The preincubation was utilized to allow analogue and transporters to reach an equilibrium so that kinetic effects were not a significant factor. Ki values were determined using standard techniques.

T1 sequence (P23977 whole entry): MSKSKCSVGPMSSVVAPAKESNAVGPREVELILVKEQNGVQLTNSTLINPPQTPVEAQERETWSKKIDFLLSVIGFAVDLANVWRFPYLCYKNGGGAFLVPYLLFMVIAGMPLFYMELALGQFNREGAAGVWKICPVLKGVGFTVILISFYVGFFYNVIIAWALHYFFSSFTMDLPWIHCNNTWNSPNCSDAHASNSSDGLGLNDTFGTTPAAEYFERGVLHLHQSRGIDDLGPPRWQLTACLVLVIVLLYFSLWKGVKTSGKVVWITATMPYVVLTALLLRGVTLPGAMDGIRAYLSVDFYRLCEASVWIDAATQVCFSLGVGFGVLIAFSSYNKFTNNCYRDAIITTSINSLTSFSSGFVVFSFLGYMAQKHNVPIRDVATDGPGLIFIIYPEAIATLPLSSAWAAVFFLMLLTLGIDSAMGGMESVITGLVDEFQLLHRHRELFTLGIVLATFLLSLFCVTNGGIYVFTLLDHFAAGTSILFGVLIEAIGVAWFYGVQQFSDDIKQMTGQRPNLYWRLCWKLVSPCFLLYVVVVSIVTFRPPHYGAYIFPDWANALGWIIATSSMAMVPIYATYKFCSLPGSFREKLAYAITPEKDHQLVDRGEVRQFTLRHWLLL

SMILES | selectivity for the dopamine transporter relative to the serotonin transporter
Cc1ccc([C@@H]2C[C@@H]3CC[C@H]([C@H]2c2ccccc2)N3C)cc1 [compound 37, (1R, 5S)-2β-Phenyl-3α-(p-tolyl)tropane] | highly selective
CN1[C@H]2CC[C@@H]1[C@@H](c1ccccc1)[C@H](c1ccccc1)C2 [compound 49, (1R,5S)-2β-Phenyl-3α-phenyltropane] | highly selective
